# Where two headings read alike, the source gives them in different places.
# Key:
# MOR [1] = target: T1, MOR (Homo sapiens, UniProt P35372); assay: cell-based; parameters: host or cells: CHO-K1 OPRM1 β-arrestin-2 cells; conditions: for Emax: read-out: % Efficacy (maximum efficacy based on DAMGO maximum stimulation)
# Target sequence in this assay (P35372 whole entry): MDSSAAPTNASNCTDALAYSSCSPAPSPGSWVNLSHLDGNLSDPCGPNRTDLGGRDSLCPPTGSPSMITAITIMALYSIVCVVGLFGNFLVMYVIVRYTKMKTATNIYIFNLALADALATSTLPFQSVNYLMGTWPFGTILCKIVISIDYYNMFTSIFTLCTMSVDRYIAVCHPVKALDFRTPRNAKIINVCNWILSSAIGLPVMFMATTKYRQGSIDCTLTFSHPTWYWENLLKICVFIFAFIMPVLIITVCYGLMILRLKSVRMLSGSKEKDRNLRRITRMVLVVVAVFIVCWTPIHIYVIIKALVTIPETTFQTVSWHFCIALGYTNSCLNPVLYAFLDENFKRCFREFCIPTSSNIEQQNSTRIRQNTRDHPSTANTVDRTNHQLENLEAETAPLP
# Target sequence in this assay (P32121 whole entry partner): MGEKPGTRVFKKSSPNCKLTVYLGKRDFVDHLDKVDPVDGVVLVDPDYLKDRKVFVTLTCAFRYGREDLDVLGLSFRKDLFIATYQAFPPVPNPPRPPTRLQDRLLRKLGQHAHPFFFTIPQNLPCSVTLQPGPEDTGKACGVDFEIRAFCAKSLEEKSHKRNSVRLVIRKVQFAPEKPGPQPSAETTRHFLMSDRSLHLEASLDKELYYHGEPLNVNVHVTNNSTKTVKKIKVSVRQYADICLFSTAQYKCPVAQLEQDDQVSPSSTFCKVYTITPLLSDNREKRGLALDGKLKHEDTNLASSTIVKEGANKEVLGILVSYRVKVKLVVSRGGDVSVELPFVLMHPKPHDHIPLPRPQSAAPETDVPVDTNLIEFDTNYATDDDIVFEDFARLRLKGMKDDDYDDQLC
# MOR [2] = target: T1, MOR; assay: cell-based; type: cell-based; parameters: expressed in transfected cells; host or cells: CHO cells stably expressing MOR; conditions: for MOR potency relative to kurkinorin: cAMP assay, Table 1
# Target sequence in this assay (P35372 whole entry): as the sequence (P35372 whole entry) above
# mice [3] = assay: accelerating rotarod performance assay; conditions: preliminary data, compared to morphine
# mice [4] = assay: hot water tail-flick tolerance evaluation; type: in vivo; conditions: daily i.p. for 9 days, 10 mg/kg morphine or 5 mg/kg compound 3.46, latency 30 min after dose
# [5] = CHO cells expressing MOR, read-out: EC50 (inhibition of cAMP accumulation)
SMILES,Bias Factor (MOR [1]),EC50 (MOR [1]),Emax (MOR [1]),EC50 (MOR [2]; [5]),melting point,effects on motor coordination (mice [3]),antinociceptive effects (% maximal possible effect) on daily administration (mice [4]),MOR potency relative to kurkinorin (MOR [2]),EC50 (MOR [2]),Emax (MOR [2]; CHO)
"COC(=O)[C@@H]1C=C(OC(=O)c2ccc3c(c2)CNC3=O)C(=O)[C@H]2[C@@]1(C)CC[C@H]1C(=O)O[C@H](c3ccoc3)C[C@]21C [Entry 9, (2S,4aR,6aR,7R,10aR,10bR)-2-(furan-3-yl)-7-(methoxycarbonyl)-6a,10b-dimethyl-4,10-dioxo-1,4,4a,5,6,6a,7,10,10a,10b-decahydro-2H-benzo[f]isochromen-9-yl 1-oxoisoindoline-5-carboxylate]",0.81,260 nM,88%,3.2 ± 0.7 nM,–,–,–,–,–,–
"COC(=O)[C@@H]1C=C(OC(=O)c2cccc(CO)c2)C(=O)[C@H]2[C@@]1(C)CC[C@H]1C(=O)O[C@H](c3ccoc3)C[C@]21C [Entry 4, Methyl (2S,4aR,6aR,7R,10aR,10bR)-2-(furan-3-yl)-9-((3-(hydroxymethyl)benzoyl)oxy)-6a,10b-dimethyl-4,10-dioxo-1,4,4a,5,6,6a,7,10,10a,10b-decahydro-2H-benzo[f]isochromene-7-carboxylate]",0.87,150 nM,75%,2.42 ± 0.07 nM,104 to 106 °C,–,–,–,–,–
"COCc1ccc(C(=O)OC2=C[C@@H](C(=O)OC)[C@]3(C)CC[C@H]4C(=O)O[C@H](c5ccoc5)C[C@]4(C)[C@H]3C2=O)cc1 [Entry 5, Methyl (2S,4aR,6aR,7R,10aR,10bR)-2-(furan-3-yl)-9-((4-(methoxymethyl)benzoyl)oxy)-6a,10b-dimethyl-4,10-dioxo-1,4,4a,5,6,6a,7,10,10a,10b-decahydro-2H-benzo[f]isochromene-7-carboxylate]",1.98,360 nM,74%,13 ± 3 nM,–,–,–,–,–,–
"COC(=O)[C@@H]1C=C(OC(=O)c2ccc(CO)cc2)C(=O)[C@H]2[C@@]1(C)CC[C@H]1C(=O)O[C@H](c3ccoc3)C[C@]21C [Entry 3, Methyl (2S,4aR,6aR,7R,10aR,10bR)-2-(furan-3-yl)-9-((4-(hydroxymethyl)benzoyl)oxy)-6a,10b-dimethyl-4,10-dioxo-1,4,4a,5,6,6a,7,10,10a,10b-decahydro-2H-benzo[f]isochromene-7-carboxylate]",0.14,14 nM,81%,0.03 ± 0.01 nM,115 to 118 °C,significantly less effects on motor coordination than morphine,maintained antinociceptive efficacy from days 1-9,about two orders of magnitude more potent than kurkinorin,–,–
"COC(=O)[C@@H]1C=C(OC(=O)c2ccc3ccoc3c2)C(=O)[C@H]2[C@@]1(C)CC[C@H]1C(=O)O[C@H](c3ccoc3)C[C@]21C [Entry 1, Methyl (2S,4aR,6aR,7R,10aR,10bR)-9-((benzofuran-6-carbonyl)oxy)-2-(furan-3-yl)-6a,10b-dimethyl-4,10-dioxo-1,4,4a,5,6,6a,7,10,10a,10b-decahydro-2H-benzo[f]isochromene-7-carboxylate]",2.62,40 nM,90%,1.5 ± 0.6 nM,–,–,–,–,–,–
"COC(=O)[C@@H]1C=C(OC(=O)c2ccc3occc3c2)C(=O)[C@H]2[C@@]1(C)CC[C@H]1C(=O)O[C@H](c3ccoc3)C[C@]21C [Entry 2, Methyl (2S,4aR,6aR,7R,10aR,10bR)-9-((benzofuran-5-carbonyl)oxy)-2-(furan-3-yl)-6a,10b-dimethyl-4,10-dioxo-1,4,4a,5,6,6a,7,10,10a,10b-decahydro-2H-benzo[f]isochromene-7-carboxylate]",1.21,490 nM,84%,–,–,–,–,–,9 ± 2 nM,–
"COC(=O)[C@@H]1C=C(OC(=O)c2ccc3c(c2)C(=O)NC3)C(=O)[C@H]2[C@@]1(C)CC[C@H]1C(=O)O[C@H](c3ccoc3)C[C@]21C [Entry 8, (2S,4aR,6aR,7R,10aR,10bR)-2-(furan-3-yl)-7-(methoxycarbonyl)-6a,10b-dimethyl-4,10-dioxo-1,4,4a,5,6,6a,7,10,10a,10b-decahydro-2H-benzo[f]isochromen-9-yl 3-oxoisoindoline-5-carboxylate]",0.65,190 nM,76%,2.2 ± 0.2 nM,–,–,–,–,–,–
"C[C@@H](NC(=O)[C@@H](N)Cc1ccc(O)cc1)C(=O)NCC(=O)N(C)[C@@H](Cc1ccccc1)C(=O)NCCO [DAMGO, reference compound]",1.0,–,–,–,–,–,–,–,–,–
COC(=O)[C@@H]1C=C(OC(=O)c2ccc(C(N)=O)cc2)C(=O)[C@H]2[C@@]1(C)CC[C@H]1C(=O)O[C@H](c3ccoc3)C[C@]21C [Entry 6],1.57,10 nM,119%,–,–,–,–,almost an order of magnitude more potent than kurkinorin,0.19 ± 0.03 nM,–
COC(=O)[C@@H]1C=C(OC(=O)c2cccc(C(N)=O)c2)C(=O)[C@H]2[C@@]1(C)CC[C@H]1C(=O)O[C@H](c3ccoc3)C[C@]21C,–,> 25000 nM,0%,–,–,–,–,–,> 10000 nM,0%
